The source of these data is patent publication US8268807B2, “Compositions and method for the treatment of multiple myeloma” (SRI International, priority 2010, dated 2012).

One assay deals with T1, ER-α (Homo sapiens, UniProt P03372).
T1 sequence (P03372 1-595): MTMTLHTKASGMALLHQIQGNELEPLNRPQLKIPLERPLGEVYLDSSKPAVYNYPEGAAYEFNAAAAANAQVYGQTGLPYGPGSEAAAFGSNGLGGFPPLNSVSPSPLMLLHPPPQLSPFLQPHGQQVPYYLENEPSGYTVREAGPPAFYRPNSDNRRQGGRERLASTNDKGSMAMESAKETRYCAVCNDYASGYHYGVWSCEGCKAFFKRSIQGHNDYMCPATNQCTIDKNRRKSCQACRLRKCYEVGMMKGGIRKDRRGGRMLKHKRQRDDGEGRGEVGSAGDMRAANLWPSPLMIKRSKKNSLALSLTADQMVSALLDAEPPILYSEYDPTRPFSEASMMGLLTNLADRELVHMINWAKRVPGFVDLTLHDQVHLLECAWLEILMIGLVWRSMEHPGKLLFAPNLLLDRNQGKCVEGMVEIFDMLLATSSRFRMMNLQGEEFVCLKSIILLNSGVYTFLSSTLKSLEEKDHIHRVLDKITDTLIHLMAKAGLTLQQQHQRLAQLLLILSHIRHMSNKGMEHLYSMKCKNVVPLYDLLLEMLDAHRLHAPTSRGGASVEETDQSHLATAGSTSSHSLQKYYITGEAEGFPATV
The assay can be described thus: Estrogen receptor binding assay (3H-estradiol displacement), ER-α. The conditions noted are these: recombinant estrogen receptor, 10 nM 3H-estradiol, 4° C. overnight; read-out: Binding Affinity (IC50) ER-α.

The next assay has as its target ER-β (Homo sapiens, UniProt Q92731). The assay can be described thus: Estrogen receptor binding assay (3H-estradiol displacement), ER-β. The conditions noted are these: recombinant estrogen receptor, 10 nM 3H-estradiol, 4° C. overnight; read-out: Binding Affinity (IC50) ER-β.
Assay [1] concerns RPMI-8226 multiple myeloma cells. Description: Proliferation of RPMI-8226 multiple myeloma cells. The assay is classed as cell-based, human. The conditions noted are these: read-out: IC50 against RPMI-8226 proliferation. How it is done:
Growth inhibition assay was performed to assess the effect of Compound (1) and antiestrogens on growth of RPMI-8226 (multiple myeloma) cells. Cells were seeded in 96-well plates at 2000 cells/well in 200 μL of medium. After 24 hours, test compounds were added to each well and control wells received vehicle only. On Day 3, viable cells were measured with the MTT assay, using an MTT kit.
The effect of Compound (1) and analogs thereof on proliferation of RPMI-8226 multiple myeloma cells was determined by standard methods.

Assay [2] can be described thus: Activity test of salts of Compound (1) (test not specified).

Each structure is given as a SMILES string. Where two headings read alike, the source gives them in different places. A value given as a limit tells only on which side of the number the result lay.

Chain of ER-β (Q92731 whole entry, species assumed): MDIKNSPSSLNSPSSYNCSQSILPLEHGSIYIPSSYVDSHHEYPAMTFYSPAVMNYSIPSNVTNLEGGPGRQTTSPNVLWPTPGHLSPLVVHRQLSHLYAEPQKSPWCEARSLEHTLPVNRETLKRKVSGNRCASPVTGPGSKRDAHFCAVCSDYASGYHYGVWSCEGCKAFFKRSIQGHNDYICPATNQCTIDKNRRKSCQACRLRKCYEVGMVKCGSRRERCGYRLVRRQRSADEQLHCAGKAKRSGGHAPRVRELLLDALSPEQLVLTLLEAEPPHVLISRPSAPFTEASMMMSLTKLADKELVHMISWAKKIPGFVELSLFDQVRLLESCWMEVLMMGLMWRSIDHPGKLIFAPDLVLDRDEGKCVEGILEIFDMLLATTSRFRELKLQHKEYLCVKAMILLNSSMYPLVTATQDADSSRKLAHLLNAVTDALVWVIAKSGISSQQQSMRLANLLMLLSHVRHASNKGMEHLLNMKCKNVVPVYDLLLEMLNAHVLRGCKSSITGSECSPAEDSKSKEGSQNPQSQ

As to `C[C@@H]1Cc2cc(O)ccc2[C@H]2CC[C@]3(C)/C(=C/COCCN(C)C)CC[C@H]3[C@H]12` [Compound (1)], the IC50 on ER-α turned out to be 0.00156 ± 0.00042 µM; on ER-β, 0.0867 ± 0.0133 µM; in assay [1] (Homo sapiens) it was 0.8 µM.
As to `C[C@]12CC[C@@H]3c4ccc(O)cc4C[C@@H](CCCCCCCCC[S+]([O-])CCCC(F)(F)C(F)(F)F)[C@H]3[C@@H]1CC[C@@H]2O` (stereo partly drawn) [ICI-182780, reference compound], the IC50 in assay [1] (Homo sapiens) was greater than 20 µM.
Regarding `CN(C)CCOCC=C1CCC2C3CCc4cc(O)ccc4C3CCC12C.O=C(O)C=CC(=O)O` (stereo not drawn) [fumerate salt], the “Activity of salt (data not provided)” value in assay [2] is recorded as “found to have activity”.
On to `C[C@@H]1Cc2cc(O)ccc2C2CC[C@]3(C)/C(=C/COCCN4CCCC4)CCC3C21` (stereo partly drawn), for which the IC50 in assay [1] (Homo sapiens) worked out at 6.9 µM.
Regarding `C[C@@H]1Cc2cc(O)ccc2[C@H]2CC[C@]3(C)/C(=C/COCCNC4CC4)CC[C@H]3[C@H]12`, in assay [1] (Homo sapiens), the IC50 is 10.2 µM.
As to `CC/C(=C(\c1ccc(O)cc1)c1ccc(OCCN(C)C)cc1)c1ccccc1` [OH-Tamoxifen, reference compound], the IC50 in assay [1] was greater than 20 µM.
For the molecule `CN(C)CCOCC=C1CCC2C3CCc4cc(O)ccc4C3CCC12C.Cl` (stereo not drawn) [chloride salt], the “Activity of salt (data not provided)” value in assay [2] was “found to have activity”.
Take `O=C(c1ccc(OCCN2CCCCC2)cc1)c1c(-c2ccc(O)cc2)sc2cc(O)ccc12` [Raloxifene, reference compound]: the IC50 in assay [1] (Homo sapiens) was greater than 20 µM.
Consider `C[C@@H]1Cc2cc(O)ccc2[C@H]2CC[C@]3(C)/C(=C/COCCN4CCCCC4)CC[C@H]3[C@H]12`, for which the IC50 in assay [1] (Homo sapiens) came to 15 µM.
Consider `C[C@@H]1Cc2cc(O)ccc2[C@H]2CC[C@]3(C)/C(=C/COC[C@@H](C)N(C)C)CC[C@H]3[C@H]12`, for which the IC50 in assay [1] (Homo sapiens) came out at 9.2 µM.
